The CheMixHub viscosity set

Assay: xn = mol fraction of the nth substance listed

CCC(=O)O + C[N+](C)(C)CCO.[Cl-]
101 kPa, x2 = 0.333
Settings | viscosity [mPa·s]
293.15 K | 70.98
298.15 K | 55.91
303.15 K | 44.79
308.15 K | 36.45
313.15 K | 30.06
318.15 K | 25.09
323.15 K | 21.19

CCCCCCCN + Cc1ccccc1
303.15 K, 101 kPa
Settings | viscosity [mPa·s]
x2 = 0.1243 | 0.8161
x2 = 0.2792 | 0.7217
x2 = 0.4418 | 0.6387
x2 = 0.5561 | 0.5933
x2 = 0.5995 | 0.58
x2 = 0.7025 | 0.5493
x2 = 0.7845 | 0.5305
x2 = 0.875 | 0.5139
x2 = 0.939 | 0.5173

Nc1cccc(Cl)c1 + CC(=O)c1ccccc1
viscosity [mPa·s], 100 kPa
Settings | x1 = 0.0807 | x1 = 0.1719 | x1 = 0.2629 | x1 = 0.3608 | x1 = 0.4656 | x1 = 0.5646 | x1 = 0.6658 | x1 = 0.7765 | x1 = 0.8859
303.15 K | 1.647 | 1.812 | 1.993 | 2.206 | 2.459 | 2.723 | 3.022 | 3.386 | 3.788
308.15 K | 1.538 | 1.688 | 1.85 | 2.041 | 2.266 | 2.5 | 2.764 | 3.084 | 3.436
313.15 K | 1.38 | 1.515 | 1.66 | 1.83 | 2.031 | 2.239 | 2.474 | 2.758 | 3.069
318.15 K | 1.218 | 1.337 | 1.466 | 1.616 | 1.793 | 1.976 | 2.183 | 2.433 | 2.707

Nc1cccc(Cl)c1 + Clc1ccccc1
Settings | viscosity [mPa·s]
308.15 K, 100 kPa, x1 = 0.3821 | 2.145

O=C(O)c1cccnc1 + O
viscosity [mPa·s]
Settings | 100 kPa | 101 kPa
298.15 K, x1 = 0.000225 | 0.8934 | 0.8934
298.15 K, x1 = 0.000268 | 0.903 | –
298.15 K, x1 = 0.000452 | 0.8963 | 0.8963
298.15 K, x1 = 0.0005074 | – | 0.8966
298.15 K, x1 = 0.0007821 | – | 0.9016
298.15 K, x1 = 0.000808 | 0.908 | –
298.15 K, x1 = 0.000907 | 0.902 | 0.902
298.15 K, x1 = 0.00135 | 0.913 | –
298.15 K, x1 = 0.0015 | – | 0.893
298.15 K, x1 = 0.00162 | 0.916 | –
303.15 K, x1 = 0.000542 | 0.809 | –
303.15 K, x1 = 0.000808 | 0.812 | –
303.15 K, x1 = 0.00108 | 0.814 | –
308.15 K, x1 = 0.000452 | – | 0.7233
308.15 K, x1 = 0.0005074 | – | 0.7239
308.15 K, x1 = 0.00108 | 0.746 | –
308.15 K, x1 = 0.001153 | – | 0.7288
308.15 K, x1 = 0.001301 | – | 0.7321
308.15 K, x1 = 0.00135 | 0.75 | –
308.15 K, x1 = 0.00136 | 0.732 | 0.732
308.15 K, x1 = 0.001617 | – | 0.7347
308.15 K, x1 = 0.00162 | 0.754 | –
308.15 K, x1 = 0.001957 | – | 0.7385
313.15 K, x1 = 0.000808 | 0.673 | –
313.15 K, x1 = 0.00108 | 0.677 | –
313.15 K, x1 = 0.00135 | 0.681 | –
313.15 K, x1 = 0.00162 | 0.685 | –
318.15 K, x1 = 0.000225 | 0.5976 | 0.5976
318.15 K, x1 = 0.000268 | 0.61 | –
318.15 K, x1 = 0.000542 | 0.614 | –
318.15 K, x1 = 0.0007 | – | 0.584
318.15 K, x1 = 0.0007821 | – | 0.602
318.15 K, x1 = 0.000808 | 0.617 | –
318.15 K, x1 = 0.000907 | 0.6036 | 0.6036
318.15 K, x1 = 0.00108 | 0.62 | –
318.15 K, x1 = 0.001153 | – | 0.6035
318.15 K, x1 = 0.00135 | 0.624 | –
318.15 K, x1 = 0.00136 | 0.608 | 0.608
318.15 K, x1 = 0.0015 | – | 0.587
318.15 K, x1 = 0.001617 | – | 0.6081
318.15 K, x1 = 0.00162 | 0.628 | –
318.15 K, x1 = 0.001957 | – | 0.61
318.15 K, x1 = 0.0022 | – | 0.589
